Data from patent publication US20230365570A1, “COMPOUNDS WITH GLUCOCORTICOID SPARING EFFECTS AND USES THEREOF” (The Regents of the University of California, priority 2020, published 2023).

System: THP-1 cells
Assay: CXCL8 production by LPS stimulated THP-1 cells (ELISA)
Assay type: cell-based, human
Conditions: LPS 10 ng/ml, purchased compound, mean LPS CXCL8 201.1 pg/ml = 100%
Experimental: THP-1 cells (10^5 cells/200 μL/well) and RA FLS (104/200 μL/well) were plated in 96 well plates and pre-treated with compound or vehicle for 1 h and then stimulated with either LPS (10 ng/ml), 1L-1ß (2 ng/ml) or TNF (2 ng/ml for THP-1 and 1 ng/ml for RA FLS). After 18 h of incubation, supernatants were collected and the levels of cytokines and chemokines in the culture supernatants were measured by ELISA according to the manufacturer's protocols (R&D systems, Minneapolis, MN).
The 122 hit compounds underwent additional screening and were evaluated for their effects on cell viability and the ability to suppress production of an NF-κB-associated chemokine, CXCL8 (IL-8) by LPS stimulated THP-1 cells (FIG. 2D). The cells were also examined for viability after 24 h of stimulation by MTT assay (FIG. 2E).
Three of the eleven chemotypes were excluded based on the potential for them to be Michael acceptors, In many cases α,β-unsaturated carbonyls such as those found in these chemotypes can form adducts with thiols, especially under physiological conditions (pH=6-8), reducing the in vivo efficacy. Also, Michael acceptors are often […] IKKß inhibitors and thereby inhibit NF-KB response. […]

Cc1ccc(-n2ncc3c(NC4CCCCC4)ncnc32)c(C)c1 [Compound 1-1]
CXCL8 production. Relative to LPS (purchased): 47.1%
